Experiments:
[1] = tested on: wild-type C57Bl6/J newborns; assay: Injection of SSR126768A (antagonist of the oxytocin receptor) in wild type newborns: feeding and lethality; type: in vivo, mouse
Description: A first cohort of C57B16 wild type newborns were removed from their mothers 1-1h30 after their birth and very rapidly were given a single s.c. injection (20 μl) of vehicle control (0.2% ethanol in distilled water) or 3 μg (in 20 μl of 0.2% ethanol in distilled water) of SSR126768A (OTA). […] of C57B16 wild type newborns were injected 12-24 hours after birth. The dose of OTA used was based on previous publications (Serradeil-Le Gal, C., et al., 2004).
We chose to use the Oxytocin antagonist SSR126768A (a gift from C. Serradeil-Le Gal, Sanofi-Synthélabo Recherche, Toulouse, France) because it was already well characterized.
Taking in account all the previous data, we hypothesized that OT deficiency might be responsible for the Magel2 KO phenotype at birth. Consequently, we decided to inject the SSR 126768A compound, a specific OT antagonist (OTA) with high affinity with the OT receptor (Serradeil-Le Gal, C., et al., 2004). We proceeded to a single injection of 3 μg (20 μl) in 68 wild-type C57B16/J newborns (9 litters), 1 to 1.5 hour after birth. In parallel, in the same conditions, we injected the vehicle […] in 48 wild-type C57B16/J newborns (7 litters). Then, 12 (+/−3) hours after the injection time, we observed than 54% (37/68) of newborns injected with OTA had no milk in their stomach versus 4% (2/48) of newborns injected with vehicle. At P1 (24-36 h old), we observed than 48% (33/68) of newborns injected with OTA were dead versus 4% (2/48) of newborns injected with vehicle control. […] Thus, the SSR 126768A OTA at a dose of 3 μg appeared to have a specific effect, preventing the feeding process and leading to death, only when it was injected in a specific window of time after birth, before the suckling activity was initiated. This phenotype simulates the Magel2 KO feeding phenotype at birth.

OTR = conditions: cited from earlier work
rats = conditions: cited from earlier work
Magel2 KO neonates = assay: Injection of oxytocin or vasopressin in Magel2 KO neonates: rescue of feeding and survival; type: in vivo, mouse; conditions: AVP injections, whatever the dose injected
Description: Three to 5 hours after delivery, wild type pups or pups issued from a cross between an heterozygote (+/−) male with wild type females were temporally removed (10 min) from their mother, weighted and given a single s.c. (in the ventral region at the level of floating ribs) injection (20 μl) of isotonic saline or 2 μg oxytocin (Phoenix Pharmaceuticals. Inc., Catalog No. 051-01) dissolved in isotonic saline (20 μl). […] Following the same protocol, we injected vasopressin (Phoenix Pharmaceuticals. Inc., Catalog No. 065-07) at different doses. At P2, pups were scarified to be genotyped.
The results obtained with the injection of SSR 126768A OTA let us think that we might restore a normal feeding behaviour in Magel2 KO newborns with an OT injection just after birth. Early neonatal manipulation of OT was reported in the literature without alterations of the postnatal development (Cushing, B. S., et Al., 2003; Yamamoto, Y., et al., 2004; Saito, O., et Al., 2007). Initially, 28 wild type newborns were injected with an isotonic saline (20 μl) and 4 of them died at P1. Another cohort of 28 wild type newborns, […] on hypothalamic nuclei one hour after the injection (Cushing, B. S., et Al., 2003; Yamamoto, Y., et al., 2004). We then decided to inject 2 μg of OT in Magel2 KO and wild type newborns, 3 to 5 hours after birth, the time when wild type newborns started to suckle but not the mutant neonates. […] The level of lethality is similar after an injection of saline solution (4/28 dead pups) or oxytocin (3/28 dead pups) and is in the range of lethality normally observed in wild type cohorts. In a second step, ten litters including a total of 37 wild type and 40 Magel2 KO neonates, were injected with an oxytocin solution. At P2, we observed that 95% (35/37) of wild type and 93% (37/40) of Magel2 mutant newborns survived with milk previously detected in their stomach at P1. In parallel, we controlled that the rescue of Magel2 KO neonates was specifically due to the oxytocin injection and not to the injection stress and/or handling of neonates. […]

SMILES | survival 48 hours later ([1]; 3 μg in 20 μl injected 12-24 hours after birth, 42 wild-type pups) | newborns dead at P1 ([1]; single s.c. injection of 3 μg, 1 to 1.5 hour after birth, P1 (24-36 h old), vehicle 4% (2/48)) [%] | newborns with no milk in their stomach ([1]; single s.c. injection of 3 μg, 1 to 1.5 hour after birth, observed 12 (+/−3) hours after injection, vehicle 4% (2/48)) [%] | selectivity (OTR) | affinity for OTR (OTR; different species, including mouse) | lethality or secondary effect (rats; 1, 3 or 10 μg/g in rats) | duration of effect on uterus (rats; after administration of a dose as low as 3 μg/g) [h] | rescue of the phenotype of Magel2 deficient neonates (Magel2 KO neonates)
CCN(Cc1cccnc1)C(=O)c1ccc(Cl)c([C@]2(C)C(=O)N(Cc3ccc(OC)cc3OC)c3ccc(Cl)cc32)c1.Cl [SSR126768A, 4-chloro-3-[(3R)-(+)-5-chloro-1-(2,4-dimethoxybenzyl)-3-methyl-2-oxo-2,3-dihydro-1H-indol-3-yl]-N-ethyl-N-(3-pyridylmethyl)-benzamide, hydrochloride] | all of them survived | 48 | 54 | high selectivity | high affinity | without inducing lethality or any strong secondary effect | 24 | –
NC(=O)CC[C@@H]1NC(=O)[C@H](Cc2ccccc2)NC(=O)[C@H](Cc2ccc(O)cc2)NC(=O)[C@@H](N)CSSC[C@@H](C(=O)N2CCC[C@H]2C(=O)N[C@@H](CCCN=C(N)N)C(=O)NCC(N)=O)NC(=O)[C@H](CC(N)=O)NC1=O [AVP, Arginine-Vasopressin] | – | – | – | – | – | – | – | did not rescue the phenotype
